{"source": "paper PMC2810191", "about": "(Biochemistry, 2009)", "origin": "cited, not measured here", "system": "Bacillus anthracis", "data": [{"smiles": "CCc1nc(N)nc(N)c1C#CCc1cc(OC)ccc1OC", "note": "[UCP120B, 2,4-diamino-5-(3-(2,5-dimethoxyphenyl)prop-1-ynyl)-6-ethyl-pyrimidine]", "values": [{"measurement": "inhibition of growth of the bacteria", "value": "modestly inhibits the growth of the bacteria"}]}]}
